Results published in patent publication US20230074545A1, “TREATMENT OF CANCER WITH CDK12/13 INHIBITORS” (Kinnate Biopharma Inc., priority 2019, published 2023).

Assays:
Experiment in all cases: Radiometric kinase panel
Type in all cases: biochemical
[1] = target: T1, ACVR2B (Homo sapiens, UniProt Q13705)
T1 construct: either as full-length or enzymatically active fragments; purchased ProQinase GmbH (Reaction Biology)
Summary of the method: (§1)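 Activity was measured radiometrically from [gamma-33P]-ATP incorporation into substrate. The kinases were recombinant human GST- or His-tagged proteins, full-length or active fragments, expressed in Sf9 or E. coli. Compound in 10% DMSO was added before the enzyme/substrate mix, which started the reaction.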

[2] = target: T2, BRAF (Homo sapiens, UniProt P15056)
T2 construct: purchased ProQinase GmbH (Reaction Biology)
Summary of the method: as §1

[3] = target: T3, BRSK2 (Homo sapiens, UniProt Q8IWQ3)
T3 construct: either as full-length or enzymatically active fragments; purchased ProQinase GmbH (Reaction Biology)
Summary of the method: as §1

[4] = target: T4, CDK18/CycY (Homo sapiens, UniProt Q07002)
T4 construct: either as full-length or enzymatically active fragments; purchased ProQinase GmbH (Reaction Biology)
Summary of the method: as §1

[5] = target: T5, CDK2/CycD1 (Homo sapiens, UniProt P24941)
T5 construct: either as full-length or enzymatically active fragments; purchased ProQinase GmbH (Reaction Biology)
Summary of the method: as §1

[6] = target: T6, CDK3/CycC (Homo sapiens, UniProt Q00526)
T6 construct: purchased ProQinase GmbH (Reaction Biology); host or cells: Sf9 insect cells or E. coli (not specified per kinase)
Summary of the method: as §1

[7] = target: T7, CDK4/CycD1 (Homo sapiens, UniProt P11802)
T7 construct: either as full-length or enzymatically active fragments; purchased ProQinase GmbH (Reaction Biology); host or cells: Sf9 insect cells or E. coli (not specified per kinase)
Summary of the method: as §1

[8] = target: T8, CDK4/CycD3 (Homo sapiens, UniProt P11802)
T8 construct: either as full-length or enzymatically active fragments; purchased ProQinase GmbH (Reaction Biology); host or cells: Sf9 insect cells or E. coli (not specified per kinase)
Summary of the method: as §1

[9] = target: T9, DAPK1 (Homo sapiens, UniProt P53355)
T9 construct: either as full-length or enzymatically active fragments; purchased ProQinase GmbH (Reaction Biology); host or cells: Sf9 insect cells or E. coli
Summary of the method: as §1

[10] = target: T10, DNAPK (Homo sapiens, UniProt P78527)
T10 construct: purchased ProQinase GmbH (Reaction Biology); host or cells: Sf9 insect cells or E. coli (not specified per kinase)
Summary of the method: as §1

[11] = target: T11, EPHA8 (Homo sapiens, UniProt P29322)
T11 construct: either as full-length or enzymatically active fragments; purchased ProQinase GmbH (Reaction Biology); host or cells: Sf9 insect cells or E. coli (not specified per kinase)
Summary of the method: as §1

[12] = target: T12, EPHB3 (Homo sapiens, UniProt P54753)
T12 construct: either as full-length or enzymatically active fragments; purchased ProQinase GmbH (Reaction Biology)
Summary of the method: as §1

[13] = target: T13, ERK5 (Homo sapiens, UniProt Q13164)
T13 construct: either as full-length or enzymatically active fragments; purchased ProQinase GmbH (Reaction Biology)
Summary of the method: as §1

[14] = target: T14, FES (Homo sapiens, UniProt P07332)
T14 construct: purchased ProQinase GmbH (Reaction Biology)
Summary of the method: as §1

[15] = target: T15, GRK5 (Homo sapiens, UniProt P34947)
T15 construct: either as full-length or enzymatically active fragments; purchased ProQinase GmbH (Reaction Biology)
Summary of the method: as §1

[16] = target: T16, HIPK1 (Homo sapiens, UniProt Q86Z02)
T16 construct: either as full-length or enzymatically active fragments; purchased ProQinase GmbH (Reaction Biology); host or cells: Sf9 insect cells or E. coli (not specified per kinase)
Summary of the method: as §1

[17] = target: T17, IKKbeta (Homo sapiens, UniProt O14920)
T17 construct: purchased ProQinase GmbH (Reaction Biology); host or cells: Sf9 insect cells or E. coli (not specified per kinase)
Summary of the method: as §1

[18] = target: T18, MEK2 (Homo sapiens, UniProt P36507)
T18 construct: either as full-length or enzymatically active fragments; purchased ProQinase GmbH (Reaction Biology)
Summary of the method: as §1

[19] = target: T19, MKNK1 (Homo sapiens, UniProt Q9BUB5)
T19 construct: purchased ProQinase GmbH (Reaction Biology)
Summary of the method: as §1

[20] = target: T20, MYLK2 (Homo sapiens, UniProt Q9H1R3)
T20 construct: either as full-length or enzymatically active fragments; purchased ProQinase GmbH (Reaction Biology); host or cells: Sf9 insect cells or E. coli
Summary of the method: as §1

[21] = target: T21, NEK7 (Homo sapiens, UniProt Q8TDX7)
T21 construct: either as full-length or enzymatically active fragments; purchased ProQinase GmbH (Reaction Biology); host or cells: Sf9 insect cells or E. coli
Summary of the method: as §1

[22] = target: T22, NLK (Homo sapiens, UniProt Q9UBE8)
T22 construct: either as full-length or enzymatically active fragments; purchased ProQinase GmbH (Reaction Biology)
Summary of the method: as §1

[23] = target: T23, PDGFRalpha (Homo sapiens, UniProt P16234)
T23 construct: either as full-length or enzymatically active fragments; purchased ProQinase GmbH (Reaction Biology)
Summary of the method: as §1

[24] = target: T24, RPS6KA5 (Homo sapiens, UniProt O75582)
T24 construct: either as full-length or enzymatically active fragments; purchased ProQinase GmbH (Reaction Biology); host or cells: Sf9 insect cells or E. coli (not specified per kinase)
Summary of the method: as §1

[25] = target: T25, SRMS (Homo sapiens, UniProt Q9H3Y6)
T25 construct: purchased ProQinase GmbH (Reaction Biology)
Summary of the method: as §1

[26] = target: T26, TGFBR2 (Homo sapiens, UniProt P37173)
T26 construct: either as full-length or enzymatically active fragments; purchased ProQinase GmbH (Reaction Biology)
Summary of the method: as §1

[27] = target: T27, TSSK1 (Homo sapiens, UniProt Q9BXA7)
T27 construct: either as full-length or enzymatically active fragments; purchased ProQinase GmbH (Reaction Biology)
Summary of the method: as §1

[28] = target: T28, TYK2 (Homo sapiens, UniProt P29597)
T28 construct: either as full-length or enzymatically active fragments; purchased ProQinase GmbH (Reaction Biology)
Summary of the method: as §1

[29] = target: T29, VEGFR1 (Homo sapiens, UniProt P17948)
T29 construct: either as full-length or enzymatically active fragments; purchased ProQinase GmbH (Reaction Biology); host or cells: Sf9 insect cells or E. coli (not specified per kinase)
Summary of the method: as §1

[30] = target: T30, WEE1 (Homo sapiens, UniProt P30291)
T30 construct: either as full-length or enzymatically active fragments; purchased ProQinase GmbH (Reaction Biology)
Summary of the method: as §1

T15 sequence (P34947 whole entry, the tested form may be a part): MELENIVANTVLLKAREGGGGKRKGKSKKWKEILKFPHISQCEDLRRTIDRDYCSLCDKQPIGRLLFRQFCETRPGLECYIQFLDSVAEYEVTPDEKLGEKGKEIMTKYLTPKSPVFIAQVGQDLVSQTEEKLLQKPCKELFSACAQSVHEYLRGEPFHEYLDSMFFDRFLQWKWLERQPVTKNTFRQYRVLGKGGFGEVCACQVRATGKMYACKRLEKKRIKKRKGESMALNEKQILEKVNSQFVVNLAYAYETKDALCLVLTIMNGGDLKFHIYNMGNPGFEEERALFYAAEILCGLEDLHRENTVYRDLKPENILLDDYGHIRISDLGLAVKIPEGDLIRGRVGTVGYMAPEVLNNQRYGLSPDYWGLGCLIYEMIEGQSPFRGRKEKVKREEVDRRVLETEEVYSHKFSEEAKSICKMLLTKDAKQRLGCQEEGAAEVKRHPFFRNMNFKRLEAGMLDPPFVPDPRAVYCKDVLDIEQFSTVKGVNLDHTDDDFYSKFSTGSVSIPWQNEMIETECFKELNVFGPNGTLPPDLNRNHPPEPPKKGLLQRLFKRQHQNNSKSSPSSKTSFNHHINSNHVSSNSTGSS
T30 sequence (P30291 whole entry, the tested form may be a part): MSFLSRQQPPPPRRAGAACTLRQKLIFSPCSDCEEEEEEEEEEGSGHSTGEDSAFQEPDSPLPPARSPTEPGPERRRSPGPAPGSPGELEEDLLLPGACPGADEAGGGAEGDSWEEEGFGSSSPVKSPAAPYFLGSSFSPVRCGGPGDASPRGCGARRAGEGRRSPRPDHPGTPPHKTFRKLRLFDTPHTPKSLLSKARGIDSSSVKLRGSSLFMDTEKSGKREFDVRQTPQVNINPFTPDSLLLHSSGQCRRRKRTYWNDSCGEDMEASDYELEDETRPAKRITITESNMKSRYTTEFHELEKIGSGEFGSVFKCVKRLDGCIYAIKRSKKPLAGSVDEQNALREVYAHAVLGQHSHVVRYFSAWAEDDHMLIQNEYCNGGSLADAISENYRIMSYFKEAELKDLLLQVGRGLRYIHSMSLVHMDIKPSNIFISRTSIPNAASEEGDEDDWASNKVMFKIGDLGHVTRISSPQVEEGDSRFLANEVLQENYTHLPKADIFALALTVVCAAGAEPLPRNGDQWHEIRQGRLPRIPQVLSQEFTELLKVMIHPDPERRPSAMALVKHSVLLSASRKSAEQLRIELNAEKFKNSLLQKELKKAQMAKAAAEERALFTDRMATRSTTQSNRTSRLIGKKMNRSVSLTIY
T2 sequence (P15056 whole entry): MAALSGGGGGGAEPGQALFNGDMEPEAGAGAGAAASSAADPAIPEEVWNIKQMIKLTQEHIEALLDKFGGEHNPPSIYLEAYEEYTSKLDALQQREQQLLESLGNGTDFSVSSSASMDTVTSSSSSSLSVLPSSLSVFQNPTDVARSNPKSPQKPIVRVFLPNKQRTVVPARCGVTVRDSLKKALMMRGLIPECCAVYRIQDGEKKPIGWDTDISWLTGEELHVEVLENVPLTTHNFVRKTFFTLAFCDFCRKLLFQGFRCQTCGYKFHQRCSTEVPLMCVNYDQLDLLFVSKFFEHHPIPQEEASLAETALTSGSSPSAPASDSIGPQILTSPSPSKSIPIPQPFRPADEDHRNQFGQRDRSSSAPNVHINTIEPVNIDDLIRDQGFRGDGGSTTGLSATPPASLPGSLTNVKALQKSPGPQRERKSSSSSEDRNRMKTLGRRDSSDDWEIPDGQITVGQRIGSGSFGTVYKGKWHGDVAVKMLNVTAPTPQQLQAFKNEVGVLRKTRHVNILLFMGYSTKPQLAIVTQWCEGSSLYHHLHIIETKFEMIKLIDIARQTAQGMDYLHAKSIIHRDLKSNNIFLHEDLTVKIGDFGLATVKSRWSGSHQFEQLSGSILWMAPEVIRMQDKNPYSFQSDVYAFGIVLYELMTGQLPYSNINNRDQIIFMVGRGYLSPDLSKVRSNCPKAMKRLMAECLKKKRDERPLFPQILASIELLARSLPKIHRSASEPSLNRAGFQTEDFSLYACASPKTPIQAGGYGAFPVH
T24 sequence (O75582 whole entry, the tested form may be a part): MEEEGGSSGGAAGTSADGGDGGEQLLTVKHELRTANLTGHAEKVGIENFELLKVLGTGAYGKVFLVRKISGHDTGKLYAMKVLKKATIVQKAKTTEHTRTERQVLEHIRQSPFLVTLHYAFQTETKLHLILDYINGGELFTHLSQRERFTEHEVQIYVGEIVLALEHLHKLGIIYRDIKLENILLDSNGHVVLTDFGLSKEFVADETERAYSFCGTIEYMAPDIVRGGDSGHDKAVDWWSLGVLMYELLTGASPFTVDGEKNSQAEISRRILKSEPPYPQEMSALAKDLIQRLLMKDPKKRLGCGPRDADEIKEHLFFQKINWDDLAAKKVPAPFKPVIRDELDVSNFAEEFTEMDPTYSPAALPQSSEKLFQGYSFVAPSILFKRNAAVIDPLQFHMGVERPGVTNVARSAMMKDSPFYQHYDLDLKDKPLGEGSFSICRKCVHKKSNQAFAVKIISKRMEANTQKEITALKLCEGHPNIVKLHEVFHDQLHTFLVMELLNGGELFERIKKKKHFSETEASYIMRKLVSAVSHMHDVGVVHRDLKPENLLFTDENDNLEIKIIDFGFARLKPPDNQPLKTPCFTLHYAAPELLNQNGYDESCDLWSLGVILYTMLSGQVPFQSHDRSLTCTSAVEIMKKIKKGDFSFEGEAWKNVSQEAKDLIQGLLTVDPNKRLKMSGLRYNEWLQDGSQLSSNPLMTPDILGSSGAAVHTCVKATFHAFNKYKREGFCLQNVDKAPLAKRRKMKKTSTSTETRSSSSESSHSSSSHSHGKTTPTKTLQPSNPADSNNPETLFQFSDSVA
T8 sequence (P11802 whole entry, the tested form may be a part): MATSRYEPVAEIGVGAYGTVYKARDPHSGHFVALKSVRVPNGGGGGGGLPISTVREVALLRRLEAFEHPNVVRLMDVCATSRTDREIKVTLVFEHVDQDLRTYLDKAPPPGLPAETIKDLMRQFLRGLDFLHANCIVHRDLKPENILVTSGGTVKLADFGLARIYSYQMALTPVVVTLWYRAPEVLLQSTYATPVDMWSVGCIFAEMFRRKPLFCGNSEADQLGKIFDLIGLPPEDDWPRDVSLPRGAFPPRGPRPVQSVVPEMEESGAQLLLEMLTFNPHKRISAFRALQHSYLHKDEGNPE
T8 sequence (P30281 whole entry partner, the tested form may be a part): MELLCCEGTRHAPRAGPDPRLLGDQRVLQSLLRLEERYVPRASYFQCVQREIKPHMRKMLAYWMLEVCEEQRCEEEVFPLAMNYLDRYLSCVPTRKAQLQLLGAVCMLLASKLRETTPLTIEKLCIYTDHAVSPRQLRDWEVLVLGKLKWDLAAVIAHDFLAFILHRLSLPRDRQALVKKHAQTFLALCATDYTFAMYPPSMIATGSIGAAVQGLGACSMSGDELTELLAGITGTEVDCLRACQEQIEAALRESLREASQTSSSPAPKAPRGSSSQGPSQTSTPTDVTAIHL
T16 sequence (Q86Z02 whole entry, the tested form may be a part): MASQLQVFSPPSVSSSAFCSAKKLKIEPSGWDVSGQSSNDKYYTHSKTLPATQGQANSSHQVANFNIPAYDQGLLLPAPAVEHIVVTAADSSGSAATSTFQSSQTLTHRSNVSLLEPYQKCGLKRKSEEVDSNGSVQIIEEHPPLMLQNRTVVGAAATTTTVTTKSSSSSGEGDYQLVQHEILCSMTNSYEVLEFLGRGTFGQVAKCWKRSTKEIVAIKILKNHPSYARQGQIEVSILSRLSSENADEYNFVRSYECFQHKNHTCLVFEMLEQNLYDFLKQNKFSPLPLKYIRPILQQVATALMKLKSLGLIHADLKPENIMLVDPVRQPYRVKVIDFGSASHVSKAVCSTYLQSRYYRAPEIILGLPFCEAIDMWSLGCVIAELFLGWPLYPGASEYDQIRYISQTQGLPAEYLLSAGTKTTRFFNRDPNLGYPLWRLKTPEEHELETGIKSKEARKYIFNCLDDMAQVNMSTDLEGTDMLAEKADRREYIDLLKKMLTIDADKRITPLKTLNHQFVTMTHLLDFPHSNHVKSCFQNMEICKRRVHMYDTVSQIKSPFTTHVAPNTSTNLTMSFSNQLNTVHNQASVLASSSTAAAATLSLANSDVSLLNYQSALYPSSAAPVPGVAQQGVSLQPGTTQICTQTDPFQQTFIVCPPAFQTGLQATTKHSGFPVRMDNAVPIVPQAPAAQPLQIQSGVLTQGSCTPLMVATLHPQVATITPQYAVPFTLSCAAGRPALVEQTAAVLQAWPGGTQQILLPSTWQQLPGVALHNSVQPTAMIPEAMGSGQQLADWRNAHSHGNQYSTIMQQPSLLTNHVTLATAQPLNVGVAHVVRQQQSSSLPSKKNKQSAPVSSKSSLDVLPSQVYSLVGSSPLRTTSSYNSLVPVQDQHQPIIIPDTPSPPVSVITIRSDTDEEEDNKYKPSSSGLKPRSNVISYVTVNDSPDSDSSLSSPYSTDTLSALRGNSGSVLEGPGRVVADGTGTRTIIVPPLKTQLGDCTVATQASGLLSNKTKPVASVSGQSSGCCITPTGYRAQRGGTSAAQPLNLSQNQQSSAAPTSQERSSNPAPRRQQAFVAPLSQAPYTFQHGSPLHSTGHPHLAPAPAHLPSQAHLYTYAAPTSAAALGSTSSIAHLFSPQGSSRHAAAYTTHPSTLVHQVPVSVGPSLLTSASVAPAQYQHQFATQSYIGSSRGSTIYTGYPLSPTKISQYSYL
T27 sequence (Q9BXA7 whole entry, the tested form may be a part): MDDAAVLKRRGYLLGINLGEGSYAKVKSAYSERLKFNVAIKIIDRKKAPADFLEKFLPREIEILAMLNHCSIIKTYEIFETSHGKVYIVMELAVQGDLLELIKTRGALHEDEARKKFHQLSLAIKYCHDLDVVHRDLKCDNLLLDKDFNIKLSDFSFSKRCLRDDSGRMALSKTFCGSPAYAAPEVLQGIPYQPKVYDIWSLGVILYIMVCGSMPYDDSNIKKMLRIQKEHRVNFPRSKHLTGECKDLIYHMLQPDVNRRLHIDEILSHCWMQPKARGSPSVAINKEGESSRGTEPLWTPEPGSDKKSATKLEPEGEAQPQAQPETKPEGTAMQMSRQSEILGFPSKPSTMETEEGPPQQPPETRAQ

## C=CC(=O)Nc1ccc(C(=O)N2CC[C@@H](Nc3ncc(C#N)cn3)C2)cc1 [Compound 4, (R)-N-(4-(3-((5-cyanopyrimidin-2-yl)amino)pyrrolidine-1-carbonyl)phenyl)acrylamide]
[1]
  inhibition at 1 µM: 6%
[2]
  inhibition at 1 µM: 0%
[3]
  inhibition at 1 µM: -10%
[4]
  inhibition at 1 µM: 20%
[5]
  inhibition at 1 µM: 18%
[6]
  inhibition at 1 µM: 1%
[7]
  inhibition at 1 µM: 9%
[8]
  inhibition at 1 µM: 10%
[9]
  inhibition at 1 µM: -15%
[10]
  inhibition at 1 µM: 2%
[11]
  inhibition at 1 µM: 9%
[12]
  inhibition at 1 µM: 5%
[13]
  inhibition at 1 µM: 6%
[14]
  inhibition at 1 µM: -2%
[15]
  inhibition at 1 µM: -6%
[16]
  inhibition at 1 µM: 8%
[17]
  inhibition at 1 µM: 1%
[18]
  inhibition at 1 µM: 3%
[19]
  inhibition at 1 µM: -2%
[20]
  inhibition at 1 µM: 12%
[21]
  inhibition at 1 µM: -15%
[22]
  inhibition at 1 µM: 4%
[23]
  inhibition at 1 µM: 7%
[24]
  inhibition at 1 µM: 10%
[25]
  inhibition at 1 µM: -2%
[26]
  inhibition at 1 µM: 22%
[27]
  inhibition at 1 µM: -10%
[28]
  inhibition at 1 µM: 6%
[29]
  inhibition at 1 µM: 8%
[30]
  inhibition at 1 µM: -5%
